According to ChEMBL document CHEMBL4507277:

Legend:
[1] = target: Serine/threonine-protein kinase MRCK alpha (Homo sapiens) (UniProt Q5VT25); settings: Compound concentration 1000.0 nM
[2] = target: Mitogen-activated protein kinase kinase kinase 1 (Homo sapiens) (UniProt Q13233); settings: Compound concentration 1000.0 nM
[3] = target: 5-hydroxytryptamine receptor 1E (Homo sapiens) (UniProt P28566); settings: Compound concentration 10.0 uM
[4] = target: Proto-oncogene tyrosine-protein kinase ROS (Homo sapiens) (UniProt P08922); settings: Compound concentration 1000.0 nM
[5] = target: Beta-2 adrenergic receptor (Homo sapiens) (UniProt P07550); settings: Compound concentration 10.0 uM
[6] = target: Serine/threonine-protein kinase SIK3 (Homo sapiens) (UniProt Q9Y2K2); settings: Compound concentration 1000.0 nM
[7] = target: Cyclin-dependent kinase 17 (Homo sapiens) (UniProt Q00537); settings: Compound concentration 1000.0 nM
[8] = target: Serine/threonine-protein kinase tousled-like 1 (Homo sapiens) (UniProt Q9UKI8); settings: Compound concentration 1000.0 nM
[9] = target: Proto-oncogene tyrosine-protein kinase Src (Homo sapiens) (UniProt P12931); settings: Compound concentration 1000.0 nM
[10] = target: Cytoplasmic tyrosine-protein kinase BMX (Homo sapiens) (UniProt P51813); settings: Compound concentration 1000.0 nM
[11] = target: 5-hydroxytryptamine receptor 2B (Homo sapiens) (UniProt P41595); settings: Compound concentration 10.0 uM
[12] = target: MAP kinase-interacting serine/threonine-protein kinase 1 (Homo sapiens) (UniProt Q9BUB5); settings: Compound concentration 1000.0 nM
[13] = target: Proto-oncogene tyrosine-protein kinase receptor Ret (Homo sapiens) (UniProt P07949); settings: Compound concentration 1000.0 nM
[14] = test system: Phosphatidylinositol 4,5-bisphosphate 3-kinase catalytic subunit alpha isoform (Homo sapiens), P42336 [M1043I]; settings: Compound concentration 1000.0 nM
[15] = target: Tyrosine-protein kinase receptor Tie-1 (Homo sapiens) (UniProt P35590); settings: Compound concentration 1000.0 nM
[16] = test system: Phosphatidylinositol 4,5-bisphosphate 3-kinase catalytic subunit alpha isoform (Homo sapiens), P42336 [C420R]; settings: Compound concentration 1000.0 nM
[17] = target: MAP kinase-interacting serine/threonine-protein kinase 2 (Homo sapiens) (UniProt Q9HBH9); settings: Compound concentration 1000.0 nM
[18] = target: RAC-gamma serine/threonine-protein kinase (Homo sapiens) (UniProt Q9Y243); settings: Compound concentration 1000.0 nM
[19] = target: Phosphatidylinositol 4-phosphate 3-kinase C2 domain-containing subunit beta (Homo sapiens) (UniProt O00750); settings: Compound concentration 1000.0 nM
[20] = target: Serine/threonine-protein kinase Nek5 (Homo sapiens) (UniProt Q6P3R8); settings: Compound concentration 1000.0 nM
[21] = target: 5-hydroxytryptamine receptor 7 (Homo sapiens) (UniProt P34969); settings: Compound concentration 10.0 uM
[22] = target: GABA-A receptor; anion channel (Rattus norvegicus) (UniProt O09028+P15431+P18506+P18508+P19969+P20236+P23574+P23576+P28471+P28473+P30191+P62813+P63079+P63138+Q91ZM7+Q9ES14); settings: Compound concentration 10.0 uM
[23] = test system: Phosphatidylinositol 4,5-bisphosphate 3-kinase catalytic subunit alpha isoform (Homo sapiens), P42336 [E545A]; settings: Compound concentration 1000.0 nM
[24] = target: SNF-related serine/threonine-protein kinase (Homo sapiens) (UniProt Q9NRH2); settings: Compound concentration 1000.0 nM
[25] = target: Serine/threonine-protein kinase WNK4 (Homo sapiens) (UniProt Q96J92); settings: Compound concentration 1000.0 nM
[26] = target: Receptor-interacting serine/threonine-protein kinase 1 (Homo sapiens) (UniProt Q13546); settings: Compound concentration 1000.0 nM
[27] = target: Atypical kinase COQ8A, mitochondrial (Homo sapiens) (UniProt Q8NI60); settings: Compound concentration 1000.0 nM
[28] = target: Dual specificity mitogen-activated protein kinase kinase 5 (Homo sapiens) (UniProt Q13163); settings: Compound concentration 1000.0 nM
[29] = target: Epidermal growth factor receptor (Homo sapiens) (UniProt P00533); settings: Compound concentration 1000.0 nM
[30] = test system: Proto-oncogene tyrosine-protein kinase receptor Ret (Homo sapiens), P07949 [V804M]; settings: Compound concentration 1000.0 nM
[31] = target: Protein kinase C eta type (Homo sapiens) (UniProt P24723); settings: Compound concentration 1000.0 nM
[32] = target: Phosphatidylinositol 3-kinase catalytic subunit type 3 (Homo sapiens) (UniProt Q8NEB9); settings: Compound concentration 1000.0 nM
[33] = target: Calcium-dependent protein kinase 1 (Plasmodium falciparum) (UniProt P62344); settings: Compound concentration 1000.0 nM
[34] = target: Hormonally up-regulated neu tumor-associated kinase (Homo sapiens) (UniProt P57058); settings: Compound concentration 1000.0 nM
[35] = target: Mitogen-activated protein kinase kinase kinase 7 (Homo sapiens) (UniProt O43318); settings: Compound concentration 1000.0 nM
[36] = target: 5'-AMP-activated protein kinase catalytic subunit alpha-2 (Homo sapiens) (UniProt P54646); settings: Compound concentration 1000.0 nM
[37] = target: SRSF protein kinase 2 (Homo sapiens) (UniProt P78362); settings: Compound concentration 1000.0 nM
[38] = target: Microtubule-associated serine/threonine-protein kinase 1 (Homo sapiens) (UniProt Q9Y2H9); settings: Compound concentration 1000.0 nM
[39] = target: Ribosomal protein S6 kinase alpha-6 (Homo sapiens) (UniProt Q9UK32); settings: Compound concentration 1000.0 nM
[40] = test system: Fibroblast growth factor receptor 3 (Homo sapiens), P22607 [G697C]; settings: Compound concentration 1000.0 nM
[41] = target: Serine/threonine-protein kinase DCLK2 (Homo sapiens) (UniProt Q8N568); settings: Compound concentration 1000.0 nM
[42] = target: Serine/threonine-protein kinase 17A (Homo sapiens) (UniProt Q9UEE5); settings: Compound concentration 1000.0 nM
[43] = target: Macrophage colony-stimulating factor 1 receptor (Homo sapiens) (UniProt P07333); settings: Compound concentration 1000.0 nM

Chain of SRSF protein kinase 2 (Homo sapiens) (P78362 whole entry, looked up): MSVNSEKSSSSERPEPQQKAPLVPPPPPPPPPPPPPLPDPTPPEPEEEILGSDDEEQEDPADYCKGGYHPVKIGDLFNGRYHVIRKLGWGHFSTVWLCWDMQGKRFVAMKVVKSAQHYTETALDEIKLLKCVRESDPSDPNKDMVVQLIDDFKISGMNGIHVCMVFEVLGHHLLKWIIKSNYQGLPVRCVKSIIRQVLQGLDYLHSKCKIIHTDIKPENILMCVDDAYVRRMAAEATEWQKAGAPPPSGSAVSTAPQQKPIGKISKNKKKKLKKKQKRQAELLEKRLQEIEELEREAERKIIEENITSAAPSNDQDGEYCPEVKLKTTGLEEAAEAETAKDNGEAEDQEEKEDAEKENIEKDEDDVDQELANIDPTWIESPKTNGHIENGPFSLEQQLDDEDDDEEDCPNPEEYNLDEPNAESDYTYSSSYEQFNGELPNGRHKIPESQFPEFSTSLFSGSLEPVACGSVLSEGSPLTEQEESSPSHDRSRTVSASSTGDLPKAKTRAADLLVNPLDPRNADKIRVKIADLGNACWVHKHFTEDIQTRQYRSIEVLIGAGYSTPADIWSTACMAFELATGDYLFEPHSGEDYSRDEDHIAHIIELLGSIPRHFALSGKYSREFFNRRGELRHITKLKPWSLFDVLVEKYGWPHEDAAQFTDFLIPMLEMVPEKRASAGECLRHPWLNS
Chain of Cyclin-dependent kinase 17 (Homo sapiens) (Q00537 whole entry, looked up): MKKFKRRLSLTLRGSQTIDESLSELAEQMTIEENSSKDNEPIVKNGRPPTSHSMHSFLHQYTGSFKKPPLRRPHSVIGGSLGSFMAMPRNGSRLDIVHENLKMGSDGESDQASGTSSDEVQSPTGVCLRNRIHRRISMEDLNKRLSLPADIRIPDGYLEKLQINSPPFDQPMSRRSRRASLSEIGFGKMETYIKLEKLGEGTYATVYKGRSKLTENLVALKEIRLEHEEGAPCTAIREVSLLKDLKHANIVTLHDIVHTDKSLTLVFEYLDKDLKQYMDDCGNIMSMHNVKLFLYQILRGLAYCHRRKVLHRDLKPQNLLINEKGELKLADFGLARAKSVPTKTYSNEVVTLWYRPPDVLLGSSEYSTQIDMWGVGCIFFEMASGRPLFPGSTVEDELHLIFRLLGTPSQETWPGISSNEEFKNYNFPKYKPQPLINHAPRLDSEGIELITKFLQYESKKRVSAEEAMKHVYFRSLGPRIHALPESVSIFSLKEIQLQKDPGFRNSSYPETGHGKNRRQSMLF
Chain of Cytoplasmic tyrosine-protein kinase BMX (Homo sapiens) (P51813 whole entry): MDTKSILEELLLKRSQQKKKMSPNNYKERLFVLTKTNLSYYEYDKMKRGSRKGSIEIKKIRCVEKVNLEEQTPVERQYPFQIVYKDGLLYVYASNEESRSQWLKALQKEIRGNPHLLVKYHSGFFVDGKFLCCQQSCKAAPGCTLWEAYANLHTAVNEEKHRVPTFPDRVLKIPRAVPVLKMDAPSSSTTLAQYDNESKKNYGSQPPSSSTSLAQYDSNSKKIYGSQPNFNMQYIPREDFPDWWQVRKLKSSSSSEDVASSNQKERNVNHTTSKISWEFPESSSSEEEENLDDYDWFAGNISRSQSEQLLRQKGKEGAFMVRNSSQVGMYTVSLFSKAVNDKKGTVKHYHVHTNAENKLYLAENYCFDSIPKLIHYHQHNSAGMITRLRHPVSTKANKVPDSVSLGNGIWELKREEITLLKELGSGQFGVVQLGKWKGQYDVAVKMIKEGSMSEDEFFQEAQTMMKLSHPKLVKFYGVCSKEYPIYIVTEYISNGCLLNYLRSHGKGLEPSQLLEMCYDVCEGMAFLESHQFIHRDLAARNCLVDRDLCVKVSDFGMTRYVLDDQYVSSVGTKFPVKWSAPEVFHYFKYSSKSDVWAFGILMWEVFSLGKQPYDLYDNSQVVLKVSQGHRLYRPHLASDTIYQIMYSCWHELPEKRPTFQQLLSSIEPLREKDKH
Chain of Microtubule-associated serine/threonine-protein kinase 1 (Homo sapiens) (Q9Y2H9 whole entry, looked up): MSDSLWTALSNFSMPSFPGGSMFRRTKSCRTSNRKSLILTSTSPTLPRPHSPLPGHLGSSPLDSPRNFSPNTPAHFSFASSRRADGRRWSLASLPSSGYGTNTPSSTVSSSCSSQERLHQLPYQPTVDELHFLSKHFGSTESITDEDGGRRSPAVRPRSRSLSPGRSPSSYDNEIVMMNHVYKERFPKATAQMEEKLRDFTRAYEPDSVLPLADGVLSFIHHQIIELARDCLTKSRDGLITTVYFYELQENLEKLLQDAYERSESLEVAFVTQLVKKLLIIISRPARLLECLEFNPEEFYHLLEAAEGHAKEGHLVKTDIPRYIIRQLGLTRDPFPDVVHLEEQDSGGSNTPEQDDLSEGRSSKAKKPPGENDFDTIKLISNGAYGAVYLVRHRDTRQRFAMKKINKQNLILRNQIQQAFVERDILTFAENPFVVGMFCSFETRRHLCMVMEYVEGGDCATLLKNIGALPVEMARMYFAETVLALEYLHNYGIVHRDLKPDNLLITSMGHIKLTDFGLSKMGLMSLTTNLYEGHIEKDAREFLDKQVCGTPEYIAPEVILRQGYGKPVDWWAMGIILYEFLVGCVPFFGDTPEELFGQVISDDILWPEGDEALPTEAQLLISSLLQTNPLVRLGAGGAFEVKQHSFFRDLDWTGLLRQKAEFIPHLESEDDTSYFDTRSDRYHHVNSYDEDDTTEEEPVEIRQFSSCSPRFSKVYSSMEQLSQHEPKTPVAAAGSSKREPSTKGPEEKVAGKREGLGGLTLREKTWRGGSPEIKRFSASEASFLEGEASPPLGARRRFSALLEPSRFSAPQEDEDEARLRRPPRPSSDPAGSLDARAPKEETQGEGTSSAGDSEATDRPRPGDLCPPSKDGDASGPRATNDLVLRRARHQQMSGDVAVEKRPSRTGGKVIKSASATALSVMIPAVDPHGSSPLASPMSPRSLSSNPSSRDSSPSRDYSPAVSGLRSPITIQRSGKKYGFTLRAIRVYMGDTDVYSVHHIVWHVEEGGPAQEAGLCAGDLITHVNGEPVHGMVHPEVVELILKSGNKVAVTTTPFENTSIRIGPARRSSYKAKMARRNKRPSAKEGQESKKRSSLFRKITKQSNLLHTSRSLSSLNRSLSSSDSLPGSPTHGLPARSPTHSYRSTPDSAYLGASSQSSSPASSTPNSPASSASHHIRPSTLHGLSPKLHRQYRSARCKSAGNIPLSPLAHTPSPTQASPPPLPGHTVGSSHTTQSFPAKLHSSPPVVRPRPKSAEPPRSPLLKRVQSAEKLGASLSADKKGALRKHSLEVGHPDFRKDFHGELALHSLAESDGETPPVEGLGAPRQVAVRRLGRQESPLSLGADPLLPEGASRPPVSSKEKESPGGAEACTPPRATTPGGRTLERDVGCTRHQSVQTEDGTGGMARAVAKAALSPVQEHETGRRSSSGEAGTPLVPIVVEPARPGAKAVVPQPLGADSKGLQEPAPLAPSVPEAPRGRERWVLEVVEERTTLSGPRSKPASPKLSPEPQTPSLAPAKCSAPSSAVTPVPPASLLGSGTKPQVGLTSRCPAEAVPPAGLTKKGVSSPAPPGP
Chain of Serine/threonine-protein kinase WNK4 (Homo sapiens) (Q96J92 whole entry): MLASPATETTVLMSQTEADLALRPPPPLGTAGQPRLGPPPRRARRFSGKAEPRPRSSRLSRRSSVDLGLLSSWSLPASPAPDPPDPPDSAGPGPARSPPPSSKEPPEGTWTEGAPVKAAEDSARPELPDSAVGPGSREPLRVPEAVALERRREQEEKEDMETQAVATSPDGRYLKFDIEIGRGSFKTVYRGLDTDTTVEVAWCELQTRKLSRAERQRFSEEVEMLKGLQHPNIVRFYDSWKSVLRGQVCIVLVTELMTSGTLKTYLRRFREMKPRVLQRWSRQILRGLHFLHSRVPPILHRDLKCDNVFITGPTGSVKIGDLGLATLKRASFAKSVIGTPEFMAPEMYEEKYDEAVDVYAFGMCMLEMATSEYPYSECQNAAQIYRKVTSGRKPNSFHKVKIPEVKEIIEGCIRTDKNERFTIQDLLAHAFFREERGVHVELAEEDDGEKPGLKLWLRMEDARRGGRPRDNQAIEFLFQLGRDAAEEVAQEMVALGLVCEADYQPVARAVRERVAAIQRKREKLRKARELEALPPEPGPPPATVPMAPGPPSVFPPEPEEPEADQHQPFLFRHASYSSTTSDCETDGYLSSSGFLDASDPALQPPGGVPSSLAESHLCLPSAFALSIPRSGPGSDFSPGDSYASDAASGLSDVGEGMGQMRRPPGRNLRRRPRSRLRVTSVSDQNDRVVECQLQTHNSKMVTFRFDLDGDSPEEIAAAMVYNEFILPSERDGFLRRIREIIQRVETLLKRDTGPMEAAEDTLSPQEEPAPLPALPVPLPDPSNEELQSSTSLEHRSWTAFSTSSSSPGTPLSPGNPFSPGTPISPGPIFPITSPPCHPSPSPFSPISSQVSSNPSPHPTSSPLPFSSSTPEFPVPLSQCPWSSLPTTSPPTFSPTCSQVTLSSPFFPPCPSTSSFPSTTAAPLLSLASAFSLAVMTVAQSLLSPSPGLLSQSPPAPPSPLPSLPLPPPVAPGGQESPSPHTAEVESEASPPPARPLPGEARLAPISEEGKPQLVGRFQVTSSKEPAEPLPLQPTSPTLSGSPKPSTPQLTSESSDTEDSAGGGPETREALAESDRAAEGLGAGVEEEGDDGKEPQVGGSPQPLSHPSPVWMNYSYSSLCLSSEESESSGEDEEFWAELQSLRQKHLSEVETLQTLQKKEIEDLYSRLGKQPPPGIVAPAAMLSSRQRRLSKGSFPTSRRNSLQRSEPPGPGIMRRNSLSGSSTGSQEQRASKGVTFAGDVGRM
Chain of 5-hydroxytryptamine receptor 1E (Homo sapiens) (P28566 whole entry): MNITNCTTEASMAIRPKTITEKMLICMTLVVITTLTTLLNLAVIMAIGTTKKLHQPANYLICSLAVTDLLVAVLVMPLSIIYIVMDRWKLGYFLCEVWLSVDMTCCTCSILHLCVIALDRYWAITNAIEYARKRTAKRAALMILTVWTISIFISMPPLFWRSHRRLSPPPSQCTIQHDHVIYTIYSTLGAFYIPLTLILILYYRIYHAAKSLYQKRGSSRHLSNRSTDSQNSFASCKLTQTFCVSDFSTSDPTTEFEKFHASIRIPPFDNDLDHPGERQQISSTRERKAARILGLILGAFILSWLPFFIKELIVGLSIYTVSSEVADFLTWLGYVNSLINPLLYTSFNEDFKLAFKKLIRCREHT

CCS(=O)(=O)c1cc2cc(C[C@](O)(CC(C)(C)c3ccc(F)cc3C(N)=O)C(F)(F)F)[nH]c2cn1
inactive: residual activity [1] 89% | residual activity [2] 87% | inhibition [3] 4.75% | residual activity [4] 100% | inhibition [5] 4.71% | residual activity [6] 85% | residual activity [7] 88% | residual activity [8] 75% | residual activity [9] 100% | residual activity [10] 74% | inhibition [11] 26.1% | residual activity [12] 97% | residual activity [13] 93% | residual activity [14] 88% | residual activity [15] 100% | residual activity [16] 95% | residual activity [17] 100% | residual activity [18] 100% | residual activity [19] 89% | residual activity [20] 100% | inhibition [21] 4.98% | inhibition [22] 11% | residual activity [23] 100% | residual activity [24] 100% | residual activity [25] 100% | residual activity [26] 100% | residual activity [27] 92% | residual activity [28] 100% | residual activity [29] 81% | residual activity [30] 100% | residual activity [31] 94% | residual activity [32] 100% | residual activity [33] 100% | residual activity [34] 100% | residual activity [35] 100% | residual activity [36] 97% | residual activity [37] 82% | residual activity [38] 100% | residual activity [39] 100% | residual activity [40] 96% | residual activity [41] 100% | residual activity [42] 80% | residual activity [43] 100%

CCS(=O)(=O)c1cc2cc(C[C@@](O)(CC(C)(C)c3ccc(F)cc3C(N)=O)C(F)(F)F)[nH]c2cn1
active: residual activity [8] 0% | residual activity [12] 46% | residual activity [39] 0%
inactive: residual activity [1] 100% | residual activity [2] 51% | inhibition [3] 11.2% | residual activity [4] 90% | inhibition [5] 15.2% | residual activity [6] 81% | residual activity [7] 82% | residual activity [9] 100% | residual activity [10] 50% | inhibition [11] -7.85% | residual activity [13] 100% | residual activity [14] 99% | residual activity [15] 66% | residual activity [16] 89% | residual activity [17] 87% | residual activity [18] 90% | residual activity [19] 86% | residual activity [20] 100% | inhibition [21] 4.44% | inhibition [22] 19.5% | residual activity [23] 99% | residual activity [24] 98% | residual activity [25] 84% | residual activity [26] 92% | residual activity [27] 95% | residual activity [28] 81% | residual activity [29] 96% | residual activity [30] 74% | residual activity [31] 100% | residual activity [32] 96% | residual activity [33] 99% | residual activity [34] 100% | residual activity [35] 92% | residual activity [36] 100% | residual activity [37] 70% | residual activity [38] 100% | residual activity [40] 100% | residual activity [41] 100% | residual activity [42] 80% | residual activity [43] 94%
